Earlier results as cited in PMC9187593 (Bioorganic chemistry, 2022).

System: ICR mice
Conditions: positive controls

| Structure (SMILES) | Effect on IP acid-stimulated stretching |
| --- | --- |
| CC(C(=O)O)c1cccc(C(=O)c2ccccc2)c1 (centres unmarked) [ketoprofen] | dose-dependent and significant decrease in IP acid-stimulated stretching |
| COc1ccc2c3c1O[C@H]1C(=O)CC[C@@]4(O)[C@@H](C2)N(C)CC[C@]314 [oxycodone] | dose-dependent and significant decrease in IP acid-stimulated stretching |
